Test results reported in patent US5736568A, “2-(aminoalkoxy) phenylalkylamines with antiinflammatory activity” (Knoll Aktiengesellschaft, priority 1994, dated 1998).

Legend:
[1] = tested on: arachidonic acid release from zymosan stimulated macrophages; assay: Test A: Inhibition of Arachidonic Acid Release from Zymosan Stimulated Macrophages; assay type: cell-based, mice (female MF1); details: Mus musculus, Macrophage; peritoneal macrophages labelled with [3H]-arachidonic acid, zymosan stimulus, 5 h; tested at 100, 50, 20, 10, 5 and 1 μM
Procedure: Test A was carried out in the following way:
Inhibition of Arachidonic Acid Release from Zymosan Stimulated Macrophages
Female MF1 mice (weighing 20 to 25 g) were killed using a rising concentration of CO2. The mice were laid on their backs and the abdomens wiped with 70% alcohol. The skin was pulled back, exposing the peritoneal wall. Medium A (5 ml) (see below) was injected into the peritoneal cavity of each mouse followed by approximately 1 ml of air using a 20 ml syringe and a 21 G×40 mm needle in order to form a suspension of macrophage cells. The medium and cells were then removed using a 19 G×40 mm needle. The resulting suspension was returned to a sterile beaker kept on ice. The extracts from all the mice were pooled and this pooled cell suspension was counted using a Coulter counter and adjusted to a final cell count of 1-1.3×10^6 cells/ml prior to labelling with [^3 H]-arachidonic acid. Typically five mice provided sufficient cells for each multiwell plate.
Sufficient [^3 H]-arachidonic acid in ethanol to give a final concentration of 1.6 μCi/ml (equivalent to 40 μCi/plate) was blown to dryness under nitrogen. The arachidonic acid was then resuspended in 1 or 2 ml of the cell suspension which was then mixed with the remainder of the cell suspension in a centrifuge bottle.
The following day, non-adherent cells were removed by washing 3 times with sterile phosphate buffered saline (PBS). The adherent peritoneal macrophages were then cultured for a further 24 hours in the presence or absence of drugs, in medium B (see below) at 37° in a 5% CO2 atmosphere in order to measure the effects of drugs on the spontaneous release of arachidonic acid in the absence of stimulus. After this incubation, supernatants were removed to give medium 1 and stored in sealed multi-well plates at 4° C. prior to scintillation counting. […] The supernatants were replaced by fresh medium C containing fresh drug and a stimulus. Three drugs were tested at six concentrations (100, 50, 20, 10, 5 and 1 μM) in replicates of four on each plate. The other wells contained controls consisting of a positive control (e.g. dexamethasone), medium (B) only and medium C only.
Incubation was then continued for a further 5 hours, whereupon the supernatants were collected to give medium 2 and the adherent cells washed with PBS. The cells were then lysed with 100 μl of 0.1% TRITON® X100 in a 0.1% solution of bovine serum albumin in 0.9% saline and mechanically disrupted to give cell lysates. These supernatants (medium 2) and cell lysates (Cells) were also stored in sealed multi-well plates at 4° C. prior to scintillation counting. 200 μl aliquots of media, or 100 μl aliquots of cells were counted using 2 ml of OPTIPHASE "HIGH SAFE" (Trademark of LKB) as scintillant.
The percentage of arachidonic acid released was calculated using the mean values for each group of 4 wells in the following equation. [formula]
The percentage inhibition of arachidonic acid release caused by a drug may then be calculated using the following equation. [formula]
Medium A (for peritoneal lavage)
This mixture was transferred to sterile flask and made up to 400 ml with sterile water.
Medium B (for cell culture)
This mixture was transferred to a sterile beaker and made up to 650 ml with sterile water.
Medium C=medium B+stimulant (zymosan)
The zymosan stimulant was prepared as follows:--zymosan (200 mg) (supplied by Sigma) was added to PBS (20 ml). The mixture was boiled for 30 minutes and the volume restored to 20 ml with water. The zymosan was harvested by centrifugation at 500×g for 5 minutes, washed twice by resuspension in PBS (10 ml) and centrifugation. After the final separation, the zymosan was resuspended in 20 ml PBS and stored as 1 ml aliquots at -20° C.

[2] = tested on: carrageenan-induced paw oedema; assay: Test B: Carrageenan-induced rat paw oedema test; assay type: in vivo; details: inhibition of paw oedema, 100 mg/kg oral, 3 h after carrageenan
Procedure: Test B was carried out in the following way:
Carrageenan-induced rat paw oedema test
Female rats, weight range 125-150 g were fasted overnight. One of the hind legs of each animal was marked with a line at the connection between the cuboid/navicular and calcaneus/talus bones. Groups of six rats were orally dosed at 10 ml/kg, in random order, with a given dose of the test compound given as a solution or suspension in 10% (w/v) aqueous acacia solution.
One hour after dosing, 0.1 ml of 1% (w/v) sterile carrageenan λ in normal saline was injected deeply into the plantar surface of the marked hind foot of each rat. The volume of the foot (up to the marked line) was measured immediately after injection using duplicate water displacement readings. Three hours after injection the foot volume was measured again and the percentage increase in foot volume relative to the initial reading was calculated.
The increase in foot volume (i.e. the degree of oedema) in drug treated animals when compared with that in the drug untreated control gave the degree of inhibition of paw oedema by the drug.
Compounds were considered to be active in this test if they produced a statistically significant (typically 20% or greater) inhibition of paw oedema in at least two out of three tests after oral dosing at 100 mg/kg. Statistical significance was assessed using the Student's t test for single dose studies and Dunnett's test for multiple dose studies. More advantageous compounds were active in both Tests A and B,

[3] = tested on: carrageenan-induced pleurisy; assay: Test C: Carrageenan-induced pleurisy in rats; assay type: in vivo, rat; details: 24 h and 48 h, leukocytes harvested at 72 h; for activity in Test C at 10 mg/kg or less: 10 mg/kg or less p.o. at challenge; for activity in Test C at 30 mg/kg: 30 mg/kg p.o. at challenge
Procedure: The most advantageous compounds of formula I were active in Test A and also in the following test. Carrageenan-induced pleurisy in rats was carried out as described by Ackerman et al. J. Pharmacol. Exp. Therap. 1980, 215, 588-595. Migrating leukocytes were harvested by lavage of the thoracic cavity 72 h after injection of 0.3 ml 1% λ-carrageenan in sterile isotonic saline. Test compounds were administered p.o. at the time of challenge and 24 h and 48 h thereafter.

Row | IC50 [1] | Compound | inhibition at 100 mg/kg [2] | activity in Test C at 10 mg/kg or less [3] | activity in Test C at 30 mg/kg [3]
1 | 30 µM | CCN(CC)CCOc1ccc(Cl)cc1CN(C)C [Example 25] | 22% | – | –
2 | 33 µM | COC(=O)c1ccc(OCCN(C)Cc2ccccc2)c(CN(C)C)c1 [Example 26, methyl 4-[2-(N-benzyl-N-methylamino)ethoxy]-3-(dimethylaminomethyl) benzoate] | – | – | –
3 | 34 µM | COc1ccc(OCCN(C)Cc2ccccc2)c(CN)c1 [Example 27, 2-[2-(N-benzyl-N-methylamino)ethoxy]-5-methoxybenzylamine] | – | – | –
4 | 18 µM | CN(CCOc1ccc(Cl)cc1CN)Cc1ccccc1 [Example 28, 2-[2-(N-benzyl-N-methylamino)ethoxy]-5-chlorobenzylamine] | – | – | –
5 | 15 µM | CN(CCCOc1cccc(Cl)c1CN)Cc1ccccc1 [Example 29, 2-[3-(N-benzyl-N-methylamino)propoxy]-6-chlorobenzylamine] | – | – | –
6 | 74 µM | CN(C)Cc1cc(Cl)ccc1OCCN(C)Cc1ccc(C(N)=O)cc1 [Example 30, 4-{N-[2-(4-chloro-2-dimethylaminomethylphenoxy)ethyl]-N-[methyl]aminomethyl}benzamide] | – | – | –
7 | 39 µM | CN(C)Cc1cc(C(N)=O)ccc1OCCN(C)Cc1ccc(Cl)cc1 [Example 31, 4-{2-[N-(4-chlorobenzyl)-N-methylamino]ethoxy}-3-(dimethylaminomethyl)benzamide] | 19% | – | –
8 | 39 µM | CN(C)Cc1cc(O)ccc1OCCN(C)Cc1ccccc1 [Example 32, 4-[2-(N-benzyl-N-methylamino)ethoxy]-3-(dimethylaminomethyl)phenol] | 0% | – | –
9 | 16 µM | CN(C)Cc1c(Cl)cccc1OCCN(C)Cc1ccccc1O [Example 33, 2-{N-[2-(3-chloro-2-dimethylaminomethylphenoxy)ethyl]-N-[methyl]aminomethyl}phenol] | – | active | –
10 | 35 µM | COc1ccc(OCCN(C)Cc2ccccc2)c(CN(C)C)c1 [Example 34, 2-[2-(N-benzyl-N-methylamino)ethoxy]-5-methoxy-N,N-dimethylbenzylamine] | – | – | –
11 | 33 µM | CN(C)Cc1c(Cl)cccc1OCCCN(C)Cc1ccccc1 [Example 35, 2-[3-(N-benzyl-N-methylamino)propoxy]-6-chloro-N,N-dimethylbenzylamine] | – | active | –
12 | 3 µM | CN(C)Cc1ccccc1OCCNC(C)(C)c1ccc(Cl)cc1 [Example 36, 2-[2-(4-chloro-α,α-dimethylbenzylamino)ethoxy]-N,N-dimethylbenzylamine] | – | active | –
13 | 12 µM | CN(CCOc1cccc(Cl)c1CN)Cc1ccccc1 [Example 37, 2-[2-(N-benzyl-N-methylamino)ethoxy]-6-chlorobenzylamine] | – | active | –

Further lines, the compound ahead of its results:

Row | Compound | IC50 [1] | inhibition at 100 mg/kg [2] | activity in Test C at 10 mg/kg or less [3] | activity in Test C at 30 mg/kg [3]
14 | CN(C)Cc1c(Cl)cccc1OCCN(C)Cc1ccccc1 [Example 1, 2-[2-(N-benzyl-N-methylamino)ethoxy]-6-chloro-N,N-dimethylbenzylamine] | 15 µM | 70% | active | –
15 | CN(C)Cc1cccc(Cl)c1OCCN(C)Cc1ccccc1 [Example 2, 2-[2-(N-Benzyl-N-methylamino)ethoxy]-3-chloro-N,N-dimethylbenzylamine] | 65 µM | – | – | –
16 | CN(C)Cc1cc(F)ccc1OCCN(C)Cc1ccccc1 [Example 3, 2-[2-(N-Benzyl-N-methylamino)ethoxy]-5-fluoro-N,N-dimethylbenzylamine] | 20 µM | 52% | – | active
17 | CN(C)Cc1cc(C#N)ccc1OCCN(C)Cc1ccccc1 [Example 4, 4-[2-(N-Benzyl-N-methylamino)ethoxy]-3-(dimethylaminomethyl)benzonitrile] | 60 µM | – | – | –
18 | CN(C)Cc1cc(Cl)c(Cl)cc1OCCN(C)Cc1ccccc1 [Example 5, 2-[2-(N-Benzyl-N-methylamino)ethoxy]-4,5-dichloro-N,N-dimethylbenzylamine] | 12 µM | 6% | – | –
19 | CN(C)Cc1ccc(Cl)cc1OCCN(C)Cc1ccccc1 [Example 6, 2-[2-(N-Benzyl-N-methylamino)ethoxy]-4-chloro-N,N-dimethylbenzylamine] | 15 µM | 18% | – | active
20 | CN(C)Cc1cc(C(F)(F)F)ccc1OCCN(C)Cc1ccccc1 [Example 7, 2-[2-(N-Benzyl-N-methylamino)ethoxy]-N,N-dimethyl-5-trifluoromethylbenzylamine] | 20 µM | 18% | – | –
21 | CN(C)Cc1c(OCCN(C)Cc2ccccc2)ccc2ccccc12 [Example 8, N-Benzyl-2-[1-(dimethylaminomethyl)naphth-2-yloxy]-N-methylethylamine] | 13 µM | 23% | – | active
22 | CN(C)Cc1cc(Cl)ccc1OCCNCc1ccccc1 [Example 9, 2-[2-(Benzylamino)ethoxy]-5-chloro-N,N-dimethylbenzyl-amine] | 9 µM | 56% | – | –
23 | CN(C)Cc1cc(Cl)ccc1OCCN(C)Cc1ccc(C#N)cc1 [Example 10, 4-{N-[2-(4-Chloro-2-dimethylaminomethylphenoxy)ethyl]-N-[methyl]aminomethyl}benzonitrile] | 47 µM | – | – | –
24 | CN(C)Cc1ccccc1OCCN(C)Cc1ccccc1Cl [Example 14, 2-{2-[N-(2-Chlorobenzyl)-N-methylamino]ethoxy}-N,N-dimethylbenzylamine] | 45 µM | – | active | –
25 | CN(C)Cc1cc(Cl)ccc1OCCN1CCCCC1 [Example 16, 5-Chloro-2-(2-piperidinoethoxy)-N,N-dimethylbenzylamine] | 26 µM | – | – | –
26 | COc1ccc(CN(C)C)c(OCCN(C)Cc2ccccc2)c1 [Example 18, 2-[2-(N-Benzyl-N-methylamino)ethoxy]-4-methoxy-N,N-dimethylbenzylamine] | 24 µM | – | – | –
27 | CCN(CC)CCOc1ccccc1CN(C)C [Example 19, 2-(2-diethylaminoethoxy)-N,N-dimethylbenzylamine] | 65 µM | – | – | –
28 | CN(C)CCOc1ccccc1CN(C)C [Example 23, 2-(2-dimethylaminoethoxy)-N,N-dimethylbenzylamine] | 62 µM | – | – | –
29 | CN(C)CCCOc1ccccc1CN(C)C [Example 24, N,N-dimethyl-2-(3-dimethylaminopropoxy) benzylamine] | 50 µM | – | – | –
